Laboratory results from patent US20220144775A1, “HYDRAZIDE COMPOUND AND KINASE INHIBITOR” (NISSAN CHEMICAL CORPORATION, priority 2019, published 2022).

How the values were obtained:
[1] = system: small intestine organoid; test: Mouse small intestine organoid culture; assay type: cell-based; details: day 9 of culture, 10 μM
Experimental: (§1) 7-Week-old male C57BL/6N mice were purchased from CHARLES RIVER LABORATORIES JAPAN, INC. After the acclimation period, the small intestine and colon were isolated under anesthesia. Crypts were collected from the excised small intestine and colon according to the protocol of IntestiCult (trade mark) Organoid Growth Medium. To be specific, the inside of the intestine was washed with 1 mL of cold PBS, then incised vertically, and washed 3 times with 1 mL of cold PBS. The intestine was transferred to a 10 cm petri dish filled with cold PBS, washed thoroughly again, and transferred to a 50 mL tube containing 15 mL of cold PBS while cutting into 2 mm pieces. […] The number of crypts contained in 10 μL of the suspension was counted under a microscope to determine the concentration, and the mixture was dispensed into a 15 mL tube at 800 crypts/tube, and centrifuged at 4° C., 200 g×5 min. […] Organoids were image-analyzed over time by Cell3iMager duos (SCREEN Holdings Co., Ltd.). For image analysis, the number of crypts having a diameter of 30-200 μm was counted as the number of seeded crypts on the first day of culture, and then those grown to 70 μm or more over time were counted as organoids, and the organoid formation rate from the crypts was calculated. At that time, the average diameter of the organoids measured at the same time was calculated. […]

[2] = system: colon organoid; test: Mouse colon organoid culture; assay type: cell-based; details: day 21 of culture, 10 μM
Experimental: as §1

[3] = system: mouse partial liver resection model; test: Liver weight increase in mouse partial liver resection model; assay type: in vivo; details: BALB/c mice; intraperitoneal, 4 times every 24 hr; about 30% of the liver removed; FIG. 2
Experimental: A partial liver resection model in which the mouse liver was partially resected was prepared as described below, and the liver weight increasing effect of the compound of the present invention was evaluated by comparing the liver weight immediately after the resection with the liver weight 3 days after the resection.
A 0.5 w/v % methylcellulose aqueous solution (0.5% MC, manufactured by FUJIFILM Wako Pure Chemical Corporation) and A-007 were evaluated. A-007 was suspended in 0.5% MC, and prepared at a final concentration of 1 mg/mL.
Mice, BALB/cAnNCrlCrlj, 5-week-old, male, were purchased from CHARLES RIVER LABORATORIES JAPAN. In terms of the 0.5% MC administration-control group, 0.5% MC 10 mL/kg was administered intraperitoneally once, and 24 hr later, the entire liver was isolated and the liver weight was measured (n=3). As used herein, the control group means a group without removal of the liver. […]
Immediately after the second administration, the abdomen was opened under isoflurane (manufactured by Intervet Co., Ltd.) anesthesia, and the root of liver lobe was ligated with a suture thread, and about 30% of the liver was finally removed by excising the tip of the ligated liver lobe. After that, the abdomen was closed, and 24 hr after the final administration, the entire liver was removed and the liver weight was measured (n=3). […]

Structure (SMILES): CC/C(=N\NC(=O)C(C)Nc1cncc(F)c1)c1ccc(O)c(C)c1O (centres unmarked) [A-007]
- formation rate (%) ([1]; DMSO 39): 70%
- average diameter (μm) ([1]; DMSO 202): 257 μm
- formation rate (%) ([2]; DMSO 14): 49%
- average diameter (μm) ([2]; DMSO 207): 251 μm
- changes in the liver weight ratio [3]: has an action of promoting a liver weight increase
